What was measured:
[1] = target: T1, Human Trypsin-3 (Homo sapiens, UniProt P35030); assay: Ki of WX-UK1, chromogenic substrate cleavage; assay type: biochemical; details: 37° C., 0.5% BSA, pH=7.4, read-out: Ki (μM) Mean ± SD (n)
T1 sequence (P35030 81-304 limits assumed): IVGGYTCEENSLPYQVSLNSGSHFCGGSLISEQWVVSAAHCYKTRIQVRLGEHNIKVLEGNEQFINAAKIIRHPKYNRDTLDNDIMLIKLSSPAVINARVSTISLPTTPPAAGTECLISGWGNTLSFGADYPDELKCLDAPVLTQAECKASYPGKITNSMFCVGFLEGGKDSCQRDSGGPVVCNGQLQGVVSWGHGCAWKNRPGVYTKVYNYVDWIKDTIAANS

[2] = target: plasmin (Homo sapiens, UniProt P00747); details: previously shown; cited from earlier work
Sequence of plasmin (P00747 581-810 limits assumed, species assumed): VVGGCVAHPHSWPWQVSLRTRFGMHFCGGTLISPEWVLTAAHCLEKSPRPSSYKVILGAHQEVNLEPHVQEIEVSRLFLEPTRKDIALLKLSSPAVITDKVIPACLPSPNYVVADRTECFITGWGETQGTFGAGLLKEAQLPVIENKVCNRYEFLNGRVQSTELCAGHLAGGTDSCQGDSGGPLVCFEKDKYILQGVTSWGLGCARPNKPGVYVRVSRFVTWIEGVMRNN
Sequence of plasmin (P00747 97-580 partner limits assumed, species assumed): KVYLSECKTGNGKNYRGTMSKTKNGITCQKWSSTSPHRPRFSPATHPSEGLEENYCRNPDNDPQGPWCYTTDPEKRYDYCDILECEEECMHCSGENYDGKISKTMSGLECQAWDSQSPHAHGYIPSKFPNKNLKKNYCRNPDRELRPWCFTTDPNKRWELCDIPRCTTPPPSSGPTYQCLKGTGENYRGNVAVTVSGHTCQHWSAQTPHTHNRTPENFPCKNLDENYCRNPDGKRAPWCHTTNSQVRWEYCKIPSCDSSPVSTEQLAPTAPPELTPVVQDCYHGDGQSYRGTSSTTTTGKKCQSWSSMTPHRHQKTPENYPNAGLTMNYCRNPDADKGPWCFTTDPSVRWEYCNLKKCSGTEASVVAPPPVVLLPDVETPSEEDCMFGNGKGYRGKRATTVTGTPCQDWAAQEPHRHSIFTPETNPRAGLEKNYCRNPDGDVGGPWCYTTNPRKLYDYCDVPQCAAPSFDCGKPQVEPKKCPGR

[3] = target: T2, trypsin-2 (Homo sapiens, UniProt P07478); assay: Ki of WX-UK1, chromogenic substrate cleavage; assay type: biochemical; details: 37° C., 0.5% BSA, pH=7.4, read-out: Ki (μM) Mean ± SD (n)
T2 sequence (P07478 24-247): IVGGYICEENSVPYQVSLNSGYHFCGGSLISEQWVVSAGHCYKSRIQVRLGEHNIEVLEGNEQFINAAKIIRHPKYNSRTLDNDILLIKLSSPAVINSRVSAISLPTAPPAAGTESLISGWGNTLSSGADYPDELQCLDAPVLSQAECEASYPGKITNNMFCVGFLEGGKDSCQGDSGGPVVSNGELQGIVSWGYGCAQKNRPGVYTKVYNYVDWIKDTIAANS

[4] = target: T2, trypsin-2; assay: Drug-binding kinetic studies
Method: (§1) Samples of the selected proteases were prepared and characterized biochemically with respect to inhibitory constant (Ki) of inhibition by WX-UK1-1 and affinity (Kd) of the interaction.

[5] = test system: implanted tumors; details: parenterally administered; cited from earlier work
[6] = target: Human Tryptase-; assay: Ki of WX-UK1, chromogenic substrate cleavage; assay type: biochemical; details: Human Tryptase- (isoform character is an image); 37° C., 0.5% BSA, pH=7.4; read-out: Ki (μM) Mean ± SD (n)
Method: as §1
Substrate concentrations were kept high in order to stay around 10% turnover per run.

[7] = Solubility; assay type: physicochemical
[8] = target: urokinase type plasminogen activator (uPA) (Homo sapiens, UniProt P00749); details: previously shown; cited from earlier work
[9] = target: Human Trypsin-1 (Homo sapiens, UniProt P07477); assay: Ki of WX-UK1, chromogenic substrate cleavage; assay type: biochemical; details: 37° C., 0.5% BSA, pH=7.4, read-out: Ki (μM) Mean ± SD (n)

Ki [1]: ~0.019 µM
Ki [3]: ~0.075 µM
rate of association with trypsin-2 compared with uPA [4]: faster
rate of dissociation from trypsin-2 compared with uPA [4]: slower
Ki [6]: 11 ± 2 µM
solubility in water [7]: poor solubility
Ki [9]: ~0.19 µM
Structure (SMILES): CCOC(=O)N1CCN(C(=O)C(Cc2cccc(C(=N)N)c2)NS(=O)(=O)c2c(C(C)C)cc(C(C)C)cc2C(C)C)CC1 (stereo not drawn) [WX-UK1, N-α-(2,4,6-triisopropylphenylsulfonyl)-3-amidino-(L)-phenylalanine 4-ethoxycarbonylpiperazide]
Ki [2]: 1460 to 2400 nM
growth rate of implanted tumors [5]: reduce the growth rate of implanted tumors
invasion into nearby lymph nodes and spreading to distant target organs of metastasis [5]: inhibit their invasion into nearby lymph nodes and their spreading to distant target organs of metastasis
Ki [8]: 650 to 900 nM
